Patent US20240016901A1, “COMPOSITIONS AND METHODS FOR PREVENTING AND TREATING SARS-COV-2 INFECTION” (priority 2020, published 2024)
Read-outs that look alike come from different tables or passages of the source.

Experiments:
SARS-CoV-2 [1] = assay: microbe, parasite or virus in culture; format: cell-based; conditions: for IC50: read-out: IC50 against SARS-CoV-2 infection
SigmaR2 = conditions: literature value (Diaz et al. 2012); cited from earlier work
SigmaR1 = conditions: read-out: SigmaR1 IC50; literature values (Moebius et al. 1997; Diaz et al. 2012); cited from earlier work
SARS-CoV-2 [2] = conditions: Gordon et al. 2020; cited from earlier work
[3] = Severe acute respiratory syndrome coronavirus 2, Huh-7
[4] = Severe acute respiratory syndrome coronavirus 2, Huh-7 cells, MOI 0.2, 10-point two-fold dilution dose response in triplicate
[5] = Severe acute respiratory syndrome coronavirus 2, Huh-7 cells

COc1cc(Nc2c(C#N)cnc3cc(OCCCN4CCN(C)CC4)c(OC)cc23)c(Cl)cc1Cl [Bosutinib]
EC50 (SARS-CoV-2 [1]; [3]): 28 nM

C[C@@](Cc1ccc(O)c(O)c1)(NN)C(=O)O [Carbidopa]
exacerbation of SARS-CoV-2 infection (SARS-CoV-2 [1]; Huh-7 cells): exacerbate SARS-CoV-2 infection

CC(C)N=c1cc2n(-c3ccc(Cl)cc3)c3ccccc3nc-2cc1Nc1ccc(Cl)cc1 [Clofazamine]
EC50 (SARS-CoV-2 [1]): 105 nM

C=C1[C@H](CO)[C@@H](O)C[C@@H]1n1cnc2c(=O)[nH]c(N)nc21 [Entecavir]
EC50 (SARS-CoV-2 [1]; [4]): 201 nM

Cc1cnc(Nc2ccc(OCCN3CCCC3)cc2)nc1Nc1cccc(S(=O)(=O)NC(C)(C)C)c1 [Fedratinib]
EC50 (SARS-CoV-2 [1]; [4]): 25 nM
IC50 (SARS-CoV-2 [1]; [5]): 25 nM

CCc1nc(C(N)=O)c(Nc2ccc(N3CCC(N4CCN(C)CC4)CC3)c(OC)c2)nc1NC1CCOCC1 [Gilteritinib]
EC50 (SARS-CoV-2 [1]; [4]): 207 nM

O=C(NC1CCN(CCCCC2(C(=O)NCC(F)(F)F)c3ccccc3-c3ccccc32)CC1)c1ccccc1-c1ccc(C(F)(F)F)cc1 [Lomitapide]
EC50 (SARS-CoV-2 [1]; [4]): 1580 nM

CCN(CC)CCNC(=O)c1cc(Cl)c(N)cc1OC [Metoclopramide]
antiviral activity against SARS-CoV-2 (in words) (SARS-CoV-2 [1]; Huh-7 cells): dose dependent antiviral activity
EC50 (SARS-CoV-2 [1]; [4]): 469 nM

O=C(Nc1ccc([N+](=O)[O-])cc1Cl)c1cc(Cl)ccc1O [Niclosamide]
EC50 (SARS-CoV-2 [1]; [4]): 142 nM

CCC(CC)COC(=O)[C@H](C)N[P@](=O)(OC[C@H]1O[C@@](C#N)(c2ccc3c(N)ncnn23)[C@H](O)[C@@H]1O)Oc1ccccc1 [Remdesivir]
EC50 (SARS-CoV-2 [1]; [3]): 95 nM

Cc1cc(OCCN2CCOCC2)nn1-c1ccc2ccccc2c1 [S1RA, 4-{2-[5-methyl-1-(naphthalen-2-yl)-1H-pyrazol-3-yloxy]ethyl}morpholine]
EC50 (SARS-CoV-2 [1]; [4]): 222 nM
IC50 (SARS-CoV-2 [1]; [5]): 222 nM
IC50 (SigmaR2): > 1000 nM
IC50 (SigmaR1): 17 nM
antiviral activity in Vero-E6 cells (SARS-CoV-2 [2]): not observed
cell toxicity (Huh-7 cells): limited cell toxicity

Nc1nc2nc[nH]c2c(=S)[nH]1 [Thioguanine]
EC50 (SARS-CoV-2 [1]; [4]): 232 nM

COc1ccc(CCN(C)CCCC(C#N)(c2ccc(OC)c(OC)c2)C(C)C)cc1OC (stereo not shown) [Verapamil]
EC50 (SARS-CoV-2 [1]; [3]): 458 nM

CC(NC(=O)[C@H](Cc1ccccc1)NC(=O)OCc1ccccc1)C(=O)CF (stereo partly shown) [Z-FA-FMK]
EC50 (SARS-CoV-2 [1]): 107 nM
antiviral activity against SARS-CoV-2 (in words) (SARS-CoV-2 [1]; Huh-7 cells): potent antiviral activity

CC(C)(C#N)c1cc(Cn2cncn2)cc(C(C)(C)C#N)c1 [anastrozole]
exacerbation of SARS-CoV-2 infection (SARS-CoV-2 [1]; Huh-7 cells): exacerbate SARS-CoV-2 infection

C[C@@H]1CCN(C(=O)CC#N)C[C@@H]1N(C)c1ncnc2[nH]ccc12 [tofacitinib]
antiviral activity against SARS-CoV-2 (in words) (SARS-CoV-2 [1]; Huh-7 cells): the latter was the only one active

transferrin: the protein transferrin (Sigma Aldrich, T2036)
anti-SARS-CoV-2 activity, percentage of infected Huh-7 cells (SARS-CoV-2 [1]; Huh-7 cells, protein at 2.3 μM, FIG. 6E): devoid of any anti-SARS-CoV-2 activity
